In US20230157952A1, “METHOD FOR IMPROVING THE STABILITY OF A PHARMACEUTICAL COMPOSITION COMPRISING A HIGH PENETRATION DRUG, AND THE PHARMACEUTICAL COMPOSITION OBTAINED THEREFROM” (Techfields Inc., priority 2020, published 2023):
Non-standard residues stand in square brackets, D forms with d. Arg(NO2) = N=C(NCCC[C@H](N)C(=O)O)N[N+](=O)[O-]

Assay: Effect of concentration on the stability of the solution (purity over time)
Conditions: for Stability of common ester over the concentrations tested: 0.01% to 10% (or higher) in 50% ethanol at 25° C.; for Purity (%) at Day 3 / Purity (%) at Day 7 / Purity (%) at hr 0 / Purity (%) at hr 24 / Purity(%) at Day 14 / Purity(%) at Day 28 / Purity(%) at Day 21 / Purity (%) at hr 2: 25° C.; for Purity at Day 30 / Purity at Day 90 / Purity at Day 180 / Purity at day 0: 1 equivalent sodium acetate in 50% ethanol at 25° C.

CC(C)OC(=O)c1ccccc1 [Isopropyl benzoate, reference compound]
Stability of common ester over the concentrations tested: very stable
Purity (%) at Day 3 (0.01 wt % in 50% ethanol): 98.1%
Purity (%) at Day 7 (0.01 wt % in 50% ethanol): 98.3%
Purity (%) at hr 0 (0.01 wt % in 50% ethanol): 98.4%
Purity (%) at hr 24 (0.01 wt % in 50% ethanol): 98.3%
Purity(%) at Day 14 (0.01 wt % in 50% ethanol): 98.2%
Purity(%) at Day 28 (0.01 wt % in 50% ethanol): 98.2%
Purity (%) at Day 3 (0.1 wt % in 50% ethanol): 98.4%
Purity (%) at Day 7 (0.1 wt % in 50% ethanol): 98.4%
Purity (%) at hr 0 (0.1 wt % in 50% ethanol): 98.4%
Purity (%) at hr 24 (0.1 wt % in 50% ethanol): 98.5%
Purity(%) at Day 14 (0.1 wt % in 50% ethanol): 98.3%
Purity(%) at Day 28 (0.1 wt % in 50% ethanol): 98.3%
Purity (%) at Day 3 (1 wt % in 50% ethanol): 98.5%
Purity (%) at Day 7 (1 wt % in 50% ethanol): 98.4%
Purity (%) at hr 0 (1 wt % in 50% ethanol): 98.5%
Purity (%) at hr 24 (1 wt % in 50% ethanol): 98.4%
Purity(%) at Day 14 (1 wt % in 50% ethanol): 98.3%
Purity(%) at Day 28 (1 wt % in 50% ethanol): 98.3%
Purity (%) at Day 3 (3 wt % in 50% ethanol): 98.4%
Purity (%) at Day 7 (3 wt % in 50% ethanol): 98.4%
Purity (%) at hr 0 (3 wt % in 50% ethanol): 98.4%
Purity (%) at hr 24 (3 wt % in 50% ethanol): 98.6%
Purity(%) at Day 14 (3 wt % in 50% ethanol): 98.4%
Purity(%) at Day 28 (3 wt % in 50% ethanol): 98.4%
Purity (%) at Day 3 (5 wt % in 50% ethanol): 98.7%
Purity (%) at Day 7 (5 wt % in 50% ethanol): 98.4%
Purity (%) at hr 0 (5 wt % in 50% ethanol): 98.5%
Purity (%) at hr 24 (5 wt % in 50% ethanol): 98.4%
Purity(%) at Day 14 (5 wt % in 50% ethanol): 98.4%
Purity(%) at Day 28 (5 wt % in 50% ethanol): 98.4%
Purity (%) at Day 3 (10 wt % in 50% ethanol): 98.4%
Purity (%) at Day 7 (10 wt % in 50% ethanol): 98.4%
Purity (%) at hr 0 (10 wt % in 50% ethanol): 98.5%
Purity (%) at hr 24 (10 wt % in 50% ethanol): 98.8%
Purity(%) at Day 14 (10 wt % in 50% ethanol): 98.4%
Purity(%) at Day 28 (10 wt % in 50% ethanol): 98.4%

CC(C)(C)OC(=O)C(N)Cc1ccccc1 (stereo not drawn) [t-Butyl 2-amino-3-phenylpropanoate, reference compound]
Stability of common ester over the concentrations tested: not stable
Purity (%) at Day 3 (0.01 wt % in 50% ethanol): 92.1%
Purity (%) at Day 7 (0.01 wt % in 50% ethanol): 89.4%
Purity (%) at hr 0 (0.01 wt % in 50% ethanol): 98.0%
Purity (%) at hr 24 (0.01 wt % in 50% ethanol): 96.1%
Purity(%) at Day 14 (0.01 wt % in 50% ethanol): 83.0%
Purity(%) at Day 21 (0.01 wt % in 50% ethanol): 60.2%
Purity(%) at Day 28 (0.01 wt % in 50% ethanol): 35.2%
Purity (%) at Day 3 (0.1 wt % in 50% ethanol): 93.1%
Purity (%) at Day 7 (0.1 wt % in 50% ethanol): 91.4%
Purity (%) at hr 0 (0.1 wt % in 50% ethanol): 98.0%
Purity (%) at hr 24 (0.1 wt % in 50% ethanol): 96.4%
Purity(%) at Day 14 (0.1 wt % in 50% ethanol): 86.1%
Purity(%) at Day 21 (0.1 wt % in 50% ethanol): 64.1%
Purity(%) at Day 28 (0.1 wt % in 50% ethanol): 41.0%
Purity (%) at Day 3 (1 wt % in 50% ethanol): 93.9%
Purity (%) at Day 7 (1 wt % in 50% ethanol): 92.2%
Purity (%) at hr 0 (1 wt % in 50% ethanol): 98.1%
Purity (%) at hr 24 (1 wt % in 50% ethanol): 96.7%
Purity(%) at Day 14 (1 wt % in 50% ethanol): 88.9%
Purity(%) at Day 21 (1 wt % in 50% ethanol): 70.9%
Purity(%) at Day 28 (1 wt % in 50% ethanol): 48.9%
Purity (%) at Day 3 (3 wt % in 50% ethanol): 94.6%
Purity (%) at Day 7 (3 wt % in 50% ethanol): 92.4%
Purity (%) at hr 0 (3 wt % in 50% ethanol): 98.2%
Purity (%) at hr 24 (3 wt % in 50% ethanol): 96.9%
Purity(%) at Day 14 (3 wt % in 50% ethanol): 89.5%
Purity(%) at Day 21 (3 wt % in 50% ethanol): 72.4%
Purity(%) at Day 28 (3 wt % in 50% ethanol): 50.4%
Purity (%) at Day 3 (5 wt % in 50% ethanol): 94.8%
Purity (%) at Day 7 (5 wt % in 50% ethanol): 93.1%
Purity (%) at hr 0 (5 wt % in 50% ethanol): 98.1%
Purity (%) at hr 24 (5 wt % in 50% ethanol): 97.0%
Purity(%) at Day 14 (5 wt % in 50% ethanol): 90.0%
Purity(%) at Day 21 (5 wt % in 50% ethanol): 73.0%
Purity(%) at Day 28 (5 wt % in 50% ethanol): 56.9%
Purity (%) at Day 3 (10 wt % in 50% ethanol): 95.9%
Purity (%) at Day 7 (10 wt % in 50% ethanol): 93.9%
Purity (%) at hr 0 (10 wt % in 50% ethanol): 98.2%
Purity (%) at hr 24 (10 wt % in 50% ethanol): 97.6%
Purity(%) at Day 14 (10 wt % in 50% ethanol): 91.0%
Purity(%) at Day 21 (10 wt % in 50% ethanol): 74.9%
Purity(%) at Day 28 (10 wt % in 50% ethanol): 59.2%

CC(C)(C)OC(=O)c1ccccc1 [t-Butyl benzoate, reference compound]
Stability of common ester over the concentrations tested: very unstable
Purity (%) at Day 3 (0.01 wt % in 50% ethanol): 0.0%
Purity (%) at Day 7 (0.01 wt % in 50% ethanol): 0.0%
Purity (%) at hr 0 (0.01 wt % in 50% ethanol): 97.5%
Purity (%) at hr 2 (0.01 wt % in 50% ethanol): 25.2%
Purity (%) at hr 24 (0.01 wt % in 50% ethanol): 0.0%
Purity(%) at Day 14 (0.01 wt % in 50% ethanol): 0.0%
Purity (%) at Day 3 (0.1 wt % in 50% ethanol): 0.0%
Purity (%) at Day 7 (0.1 wt % in 50% ethanol): 0.0%
Purity (%) at hr 0 (0.1 wt % in 50% ethanol): 97.4%
Purity (%) at hr 2 (0.1 wt % in 50% ethanol): 31.2%
Purity (%) at hr 24 (0.1 wt % in 50% ethanol): 0.0%
Purity(%) at Day 14 (0.1 wt % in 50% ethanol): 0.0%
Purity (%) at Day 3 (1 wt % in 50% ethanol): 0.0%
Purity (%) at Day 7 (1 wt % in 50% ethanol): 0.0%
Purity (%) at hr 0 (1 wt % in 50% ethanol): 97.5%
Purity (%) at hr 2 (1 wt % in 50% ethanol): 41.3%
Purity (%) at hr 24 (1 wt % in 50% ethanol): 1.6%
Purity(%) at Day 14 (1 wt % in 50% ethanol): 0.0%
Purity (%) at Day 3 (3 wt % in 50% ethanol): 1.1%
Purity (%) at Day 7 (3 wt % in 50% ethanol): 0.0%
Purity (%) at hr 0 (3 wt % in 50% ethanol): 97.4%
Purity (%) at hr 2 (3 wt % in 50% ethanol): 52.3%
Purity (%) at hr 24 (3 wt % in 50% ethanol): 15.4%
Purity(%) at Day 14 (3 wt % in 50% ethanol): 0.0%
Purity (%) at Day 3 (5 wt % in 50% ethanol): 3.6%
Purity (%) at Day 7 (5 wt % in 50% ethanol): 0.0%
Purity (%) at hr 0 (5 wt % in 50% ethanol): 97.4%
Purity (%) at hr 2 (5 wt % in 50% ethanol): 56.3%
Purity (%) at hr 24 (5 wt % in 50% ethanol): 20.3%
Purity(%) at Day 14 (5 wt % in 50% ethanol): 0.0%
Purity (%) at Day 3 (10 wt % in 50% ethanol): 5.1%
Purity (%) at Day 7 (10 wt % in 50% ethanol): 0.0%
Purity (%) at hr 0 (10 wt % in 50% ethanol): 97.8%
Purity (%) at hr 2 (10 wt % in 50% ethanol): 65.5%
Purity (%) at hr 24 (10 wt % in 50% ethanol): 25.1%
Purity(%) at Day 14 (10 wt % in 50% ethanol): 0.0%

H-Val-Pro-Gly-Pro-Arg(NO2)—OCH2CH3•HCl (H-VPGP[Arg(NO2)]-OEt; also: HCl salt)
Purity at Day 30 (0.01 wt %): 55.5%
Purity at Day 90 (0.01 wt %): 22.2%
Purity at Day 180 (0.01 wt %): 0%
Purity at day 0 (0.01 wt %): 98.1%
Purity at Day 30 (0.1 wt %): 65.7%
Purity at Day 90 (0.1 wt %): 31.3%
Purity at Day 180 (0.1 wt %): 9.6%
Purity at day 0 (0.1 wt %): 98.2%
Purity at Day 30 (1 wt %): 91.1%
Purity at Day 90 (1 wt %): 77.3%
Purity at Day 180 (1 wt %): 58.6%
Purity at day 0 (1 wt %): 98.5%
Purity at Day 30 (3 wt %): 96.8%
Purity at Day 90 (3 wt %): 93.2%
Purity at Day 180 (3 wt %): 87.8%
Purity at day 0 (3 wt %): 98.6%
Purity at Day 30 (5 wt %): 97.3%
Purity at Day 90 (5 wt %): 94.9%
Purity at Day 180 (5 wt %): 90.5%
Purity at day 0 (5 wt %): 98.7%
Purity at Day 30 (7 wt %): 97.6%
Purity at Day 90 (7 wt %): 95.2%
Purity at Day 180 (7 wt %): 91.7%
Purity at day 0 (7 wt %): 98.7%
Purity at Day 30 (8 wt %): 97.7%
Purity at Day 90 (8 wt %): 95.2%
Purity at Day 180 (8 wt %): 91.6%
Purity at day 0 (8 wt %): 98.6%
Purity at Day 30 (10 wt %): 97.5%
Purity at Day 90 (10 wt %): 95.3%
Purity at Day 180 (10 wt %): 91.7%
Purity at day 0 (10 wt %): 98.6%
Purity at Day 30 (15 wt %): 97.7%
Purity at Day 90 (15 wt %): 95.3%
Purity at Day 180 (15 wt %): 91.8%
Purity at day 0 (15 wt %): 98.8%
Purity at Day 30 (20 wt %): 97.5%
Purity at Day 90 (20 wt %): 95.1%
Purity at Day 180 (20 wt %): 91.5%
Purity at day 0 (20 wt %): 98.6%
Purity at Day 30 (30 wt %): 97.5%
Purity at Day 90 (30 wt %): 95.1%
Purity at Day 180 (30 wt %): 91.6%
Purity at day 0 (30 wt %): 98.7%
Purity at Day 30 (50 wt %): 97.7%
Purity at Day 90 (50 wt %): 95.3%
Purity at Day 180 (50 wt %): 91.8%
Purity at day 0 (50 wt %): 98.7%
